Measurements from PubChem BioAssay AID1963866 (Molecular Pharmacology Branch, DTP, NCI, 2024).

Test system: PDC KRAS tumor spheroids with HUVEC/MSC, viability
Assay: Anticancer human tumor 349418-098-R-PDC patient-derived lung adenocarcinoma cell line growth inhibition [KRAS2]
Conditions: for viability, T/C: stronger effect = lower value
Excerpt: Multicellular complex tumor spheroid response to RAS pathway inhibitors in combination with a targeted agents in patient-derived cell lines with oncogenic KRAS variants from multiple cancer types
A high-throughput screen of multi-cell type tumor spheroids was designed to identify active combinations of targeted small molecules and KRAS pathway inhibitors. Complex spheroids include a stromal component modeled by human endothelial cells (HUVEC) and fibroblasts modeled by human mesenchymal stem cells (MSCs). The concentration ranges selected for each drug and investigational agent were based upon clinically achievable concentrations if the clinical Cmax of the agent was known.
Compounds. The drugs and investigational agents: BI-3406 (NSC825286), BAY-293 (NSC824723), batoprotafib (TNO155; NSC825523), sotorasib (AMG 510; NSC818433), MRTX1257 (NSC819558), elimusertib (BAY 1895344; NSC800525), molibresib (GSK525762; NSC774829), temuterkib (LY3214996; NSC803410), venetoclax (NSC766270), alisertib (NSC759677), olaparib (NSC753686), talazoparib (NSC767125), erdafitinib (NSC781556), ipatasertib (NSC767898), cabozantinib (NSC761068), nintedanib (NSC756659), abemaciclib (NSC768073), docetaxel (NSC628503), trametinib (NSC758246), and sapanisertib (NSC764658) were obtained from the National Cancer Institute (NCI) Developmental Therapeutics Program Chemical Repository. The FDA-approved anticancer drug set is available from the Developmental Therapeutics Program. […] The stock solutions were prepared in dimethyl sulfoxide (DMSO, Sigma-Aldrich, St. Louis, MO, cat. D2650) at 800-fold the tested concentration and stored at -70 degrees C prior to their use. All drugs and investigational agents were tested over a range starting from a high concentration at or near the clinical Cmax and decreasing in half-log increments. If the clinical Cmax for an agent had not been determined, the highest concentration tested was 10 microM.
Cell Culture. All cells were maintained in an incubator at 37 degrees C and 5% CO2 with 95% humidity. The PDC lines were cultured according to standard operating procedures established by the NCI PDMR (https://pdmr.cancer.gov/sops/default.htm). Briefly, all PDCs were thawed and cultured in Matrigel-coated flasks prepared with a working solution of 1X Ham's F-12 nutrient mix, without supplementation (Invitrogen, Waltham, MA, cat. 11765054), 100 U/mL penicillin-streptomycin (Invitrogen, cat. 15140122), and 2.5% Matrigel (Corning Inc., Corning, NY, cat. 354248) for the first three passages. All PDCs were cultured in complete DMEM/F-12 media containing advanced DMEM/F-12 (Invitrogen, cat. 12634028), 4.9% defined fetal bovine serum, heat inactivated (HyClone Laboratories Inc., Logan, UT, cat. SH30070.03HI), 389 ng/mL hydrocortisone (Sigma-Aldrich, cat. H4001), 9.7 ng/mL human EGF recombinant protein (Invitrogen, cat. PHG0313), 23.4 microg/mL adenine (Sigma-Aldrich, cat. A2786), 97.3 U/mL penicillin-streptomycin (Invitrogen, cat. 15140122), 1.9 mM L-glutamine (Invitrogen, cat. 25030081), and 9.7 microM Y-27632 dihydrochloride (Tocris Bioscience, Bristol, United Kingdom, cat. 1254). The PDCs were cultured in complete DMEM/F12 media without 9.7 microM Y-27632 dihydrochloride for at least two passages prior to the screen. The established cell line HOP-62 was cultured in RPMI 1640 medium, HEPES (Invitrogen, cat. 22400105) with 10% defined fetal bovine serum (HyClone Laboratories Inc., cat. SH30070.03) and 2 mM L-glutamine (Invitrogen, cat. 25030081). The pooled donor HUVEC were cultured in endothelial cell growth medium 2 (PromoCell, Heidelberg, Germany, cat. C-22011) and the hMSC were cultured in mesenchymal stem cell growth medium 2 (PromoCell, cat. C-28009). For all experiments, HUVEC and hMSC were used at passages </=5, while the malignant cell lines were used at passages </=15. […]

[1] = curve of first compound, second compound 0.1 µM
[2] = curve of first compound, second compound 0.316 µM
[3] = curve of first compound, second compound 1 µM
[4] = curve of first compound, second compound 3.16 µM
[5] = curve of first compound, second compound 10 µM
[6] = second compound 0.1 µM, first compound 0.01 µM
[7] = second compound 0.1 µM, first compound 0.0316 µM
[8] = second compound 0.1 µM, first compound 0.1 µM
[9] = second compound 0.1 µM, first compound 0.316 µM
[10] = second compound 0.1 µM, first compound 1 µM
[11] = second compound 0.1 µM, first compound 3.16 µM
[12] = second compound 0.316 µM, first compound 0.01 µM
[13] = second compound 0.316 µM, first compound 0.0316 µM
[14] = second compound 0.316 µM, first compound 0.1 µM
[15] = second compound 0.316 µM, first compound 0.316 µM
[16] = second compound 0.316 µM, first compound 1 µM
[17] = second compound 0.316 µM, first compound 3.16 µM
[18] = second compound 1 µM, first compound 0.01 µM
[19] = second compound 1 µM, first compound 0.0316 µM
[20] = second compound 1 µM, first compound 0.1 µM
[21] = second compound 1 µM, first compound 0.316 µM
[22] = second compound 1 µM, first compound 1 µM
[23] = second compound 1 µM, first compound 3.16 µM
[24] = second compound 3.16 µM, first compound 0.01 µM
[25] = second compound 3.16 µM, first compound 0.0316 µM
[26] = second compound 3.16 µM, first compound 0.1 µM
[27] = second compound 3.16 µM, first compound 0.316 µM
[28] = second compound 3.16 µM, first compound 1 µM
[29] = second compound 3.16 µM, first compound 3.16 µM
[30] = second compound 10 µM, first compound 0.01 µM
[31] = second compound 10 µM, first compound 0.0316 µM
[32] = second compound 10 µM, first compound 0.1 µM
[33] = second compound 10 µM, first compound 0.316 µM
[34] = second compound 10 µM, first compound 1 µM
[35] = second compound 10 µM, first compound 3.16 µM
[36] = second compound 0.1 µM, first compound 10 µM
[37] = second compound 0.316 µM, first compound 10 µM
[38] = second compound 1 µM, first compound 10 µM
[39] = second compound 3.16 µM, first compound 10 µM
[40] = second compound 10 µM, first compound 10 µM
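Also: spheroids exposed to compounds for seven days before readout.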

SMILES | IC50 [1] [nM] | IC50 [2] [nM] | IC50 [3] [nM] | IC50 [4] [nM] | IC50 [5] [nM] | viability, T/C [7] [%] | viability, T/C [8] [%] | viability, T/C [9] [%] | viability, T/C [10] [%] | viability, T/C [11] [%] | viability, T/C [13] [%] | viability, T/C [14] [%] | viability, T/C [15] [%] | viability, T/C [16] [%] | viability, T/C [19] [%] | viability, T/C [20] [%] | viability, T/C [25] [%] | viability, T/C [26] [%] | viability, T/C [31] [%] | viability, T/C [32] [%] | also measured
C=CC(=O)N1CCN(c2nc(OCC3CCCN3C)nc3c2CCN(c2cccc4cccc(C)c24)C3)CC1CC#N (configuration not stated) | – | – | – | – | – | – | – | – | – | – | – | – | – | – | – | – | – | – | – | – | IC50 (compound alone, run of 07/19/2021): 1.47 µM [middle of 5 runs]; IC50 (compound alone, run of 07/26/2021): 1.33 µM [middle of 5 runs]
CC(=O)OC12COC1CC(O)C1(C)C(=O)C(O)C3=C(C)C(OC(=O)C(O)C(NC(=O)OC(C)(C)C)c4ccccc4)CC(O)(C(OC(=O)c4ccccc4)C21)C3(C)C (configuration not stated) + CC1OCC2(CCN(c3cnc(Sc4ccnc(N)c4Cl)c(N)n3)CC2)C1N | < 10 | < 10 | < 10 | < 10 | < 10 | 28.1 | 21.9 | 27.2 | 28.7 | 36.1 | 22.9 | 29.1 | 27.9 | 29.7 | 26.9 | 27.5 | 28.4 | 22.5 | 24.5 | 28.3 | viability, T/C [6]: 18%; viability, T/C [12]: 21.6%; viability, T/C [17]: 35.2%; viability, T/C [18]: 22.4%; viability, T/C [21]: 27.6%; viability, T/C [22]: 33.9%; viability, T/C [23]: 43.5%; viability, T/C [24]: 21.5%; viability, T/C [27]: 25.4%; viability, T/C [28]: 26%; viability, T/C [29]: 28.3%; viability, T/C [30]: 19.9%; viability, T/C [33]: 24.1%; viability, T/C [34]: 31.7%; viability, T/C [35]: 38.5%
CCNC(=O)CC1N=C(c2ccc(Cl)cc2)c2cc(OC)ccc2-n2c(C)nnc21 (configuration not stated) + CC1OCC2(CCN(c3cnc(Sc4ccnc(N)c4Cl)c(N)n3)CC2)C1N | 112 | 133 | 148 | 183 | 196 | 106 | 50.3 | 28.4 | 11.3 | 3.22 | 103 | 58.8 | 23.6 | 10.1 | 136 | 60.9 | 103 | 73.9 | 109 | 80 | viability, T/C [36]: 1.09%; viability, T/C [17]: 2.91%; viability, T/C [37]: 1.3%; viability, T/C [21]: 28.8%; viability, T/C [22]: 8.35%; viability, T/C [23]: 2.56%; viability, T/C [38]: 1.67%; viability, T/C [27]: 27.6%; viability, T/C [28]: 10.3%; viability, T/C [29]: 2.56%; viability, T/C [39]: 1.16%; viability, T/C [33]: 28.3%; viability, T/C [34]: 7.82%; viability, T/C [35]: 2.1%; viability, T/C [40]: 0.96%
CC(C)n1nc(-c2ccc3oc(N)nc3c2)c2c(N)ncnc21 + COc1cc2nc(C)nc(NC(C)c3cc(N)cc(C(F)(F)F)c3)c2cc1OC1CCOC1 | 1.14 | 0.791 | 0.969 | 1.27 | < 0.316 | 9.94 | 7.92 | – | – | – | 8.96 | 8.23 | – | – | 8.55 | 7.48 | 8.73 | 7.6 | 4.36 | 5.51 | viability, T/C (second compound 0.1 µM, first compound 0.000316 µM): 118%; viability, T/C (second compound 0.1 µM, first compound 0.001 µM): 54.2%; viability, T/C (second compound 0.1 µM, first compound 0.00316 µM): 16.5%; viability, T/C [6]: 10.9%; viability, T/C (second compound 0.316 µM, first compound 0.000316 µM): 106%; viability, T/C (second compound 0.316 µM, first compound 0.001 µM): 35.6%; viability, T/C (second compound 0.316 µM, first compound 0.00316 µM): 15.3%; viability, T/C [12]: 8.46%; viability, T/C (second compound 1 µM, first compound 0.000316 µM): 102%; viability, T/C (second compound 1 µM, first compound 0.001 µM): 48.5%; viability, T/C (second compound 1 µM, first compound 0.00316 µM): 16.2%; viability, T/C [18]: 9.11%; viability, T/C (second compound 3.16 µM, first compound 0.000316 µM): 99.7%; viability, T/C (second compound 3.16 µM, first compound 0.001 µM): 58.4%; viability, T/C (second compound 3.16 µM, first compound 0.00316 µM): 18.1%; viability, T/C [24]: 8.93%; viability, T/C (second compound 10 µM, first compound 0.000316 µM): 34.2%; viability, T/C (second compound 10 µM, first compound 0.001 µM): 11.4%; viability, T/C (second compound 10 µM, first compound 0.00316 µM): 4.75%; viability, T/C [30]: 5.13%
O=C(c1cc(Cc2n[nH]c(=O)c3ccccc23)ccc1F)N1CCN(C(=O)C2CC2)CC1 + CNCc1ccccc1-c1csc(C(C)Nc2nc(C)nc3cc(OC)c(OC)cc23)c1 | 4090 | 2900 | 2530 | < 31.6 | < 31.6 | 101 | 99.5 | 83 | 71 | 58.1 | 107 | 101 | 78.5 | 69.7 | 99.5 | 77.8 | 0.19 | 0.21 | 0.08 | 0.08 | viability, T/C [36]: 31.4%; viability, T/C [17]: 48.4%; viability, T/C [37]: 29%; viability, T/C [21]: 75.3%; viability, T/C [22]: 69.6%; viability, T/C [23]: 45.3%; viability, T/C [38]: 27.8%; viability, T/C [27]: 0.12%; viability, T/C [28]: 0.11%; viability, T/C [29]: 0.1%; viability, T/C [39]: 0.11%; viability, T/C [33]: 0.08%; viability, T/C [34]: 0.07%; viability, T/C [35]: 0.07%; viability, T/C [40]: 0.17%
